Test results: patent publication US10813880B2, “Isotretinoin oral-mucosal formulations and methods for using same” (Skyline Biosciences LLC, priority 2017, dated 2020)

What was measured:
[1] = test system: Human oral mucosa 3D models (composed of human gingival keratinocytes); assay: Irritation testing in 3D cultured oral epithelial cells (MTT); type: cell-based; conditions: 4 hr
Description: Human oral mucosa 3D models (composed of human gingival keratinocytes) were exposed topically to CCP-042 oral adhesive film (0.1%, 0.2%, and 0.3%) for 4 hr before viability assessment. Cell viability was measured by MTT assay on tissues, in triplicate. 1% Triton X-100 was used as positive control. The reduction of the viability of tissues exposed to formulations as compared to that of PBS-treated negative controls were used to predict the skin irritation potential using European Union (EU) and Globally Harmonized System (GHS) classifications, which define an irritant as a substance that reduces the viability of the exposed tissue to less than 50% of the viability of untreated controls.

[2] = test system: Human gingival keratinocytes; assay: Cytotoxicity in 2D cultured oral epithelial cells (Cell Titer96 Aqueous One); type: cell-based; conditions: seven concentrations 0.3 to 0.00003%, 24 h
Description: Human gingival keratinocytes derived from a single donor were cultured at 37° C. with 5% CO2, and 95% humidity in a 96-well plate for cytotoxicity evaluation. Cells were incubated in the presence of seven concentrations of isotretinoin ranging from 0.3 to 0.00003% for 24 h in triplicate. Untreated cells were used as baseline control. Cytotoxicity was evaluated using the Cell Titer96 Aqueous One (Promega, WI, USA) basic test according to manufacturer's instructions using an absorbance of 490 nm for the final colorimetric readings.

## CC1=C(/C=C/C(C)=C/C=C/C(C)=C\C(=O)O)C(C)(C)CCC1 [isotretinoin, (2Z,4E,6E,8E)-3,7-dimethyl-9-(2,6,6-trimethylcyclohex-1-en-1-yl)nona-2,4,6,8-tetraenoic acid]
[1]; concentration 0.1%
  toxicity to 3D tissue: not toxic
[1]; concentration 0.2%
  toxicity to 3D tissue: not toxic
[2]
  cytotoxicity (inhibition of viability of more than 20% of control): toxic
